In US11312727B1, “Macrocyclic flu endonuclease inhibitors” (Janssen BioPharma, Inc., priority 2018, dated 2022):

Key:
[1] = system: Influenza strain A549 A/WSN/33 (H1N1); test: microbe, parasite or virus in culture; format: cell-based; conditions: Influenza A virus, A549, 20 h, A549 cells, influenza A/WSN/33 (H1N1), 20 hours incubation; read-out: A549_A(H1N1) EC50
in vitro = conditions: human, CC50, uninfected A549 cells, CellTiter-Glo

| SMILES | EC50 [1] [nM] | CC50 (in vitro) [nM] |
| --- | --- | --- |
| COC[C@@H]1/C=C/COc2c(ccc(F)c2F)[C@@H](c2ccccc2)N2CN1C(=O)c1c(O)c(=O)ccn12 (single isomer, unassigned) [Compound 153BA, (9*S,18*R,*E)-3,4-difluoro-12-hydroxy-9-(methoxymethyl)-18-phenyl-6,9-dihydro-18H-10,17-methanobenzo[b]pyrido[1,2-f][1]oxa[5,6,9]triazacyclotridecine-11,13-dione] | 4.2 | > 100 |
| COC[C@H]1/C=C/COc2c(ccc(F)c2F)[C@@H](c2ccccc2)N2CN1C(=O)c1c(O)c(=O)ccn12 (single isomer, unassigned) [Compound 153BB, (9*R,18*R,*E)-3,4-difluoro-12-hydroxy-9-(methoxymethyl)-18-phenyl-6,9-dihydro-18H-10,17-methanobenzo[b]pyrido[1,2-f][1]oxa[5,6,9]triazacyclotridecine-11,13-dione] | 2.6 | > 100 |
| CC[C@@H]1/C=C/COc2c(F)cccc2[C@@H](c2ccccn2)N2CN1C(=O)c1c(O)c(=O)ccn12 (single isomer, unassigned) [Compound 154AA, (9*R,18*S,*E)-9-ethyl-4-fluoro-12-hydroxy-18-(pyridin-2-yl)-6,9-dihydro-18H-10,17-methanobenzo[b]pyrido[1,2-f][1]oxa[5,6,9]triazacyclotridecine-11,13-dione] | > 50 | > 100 |
| CC[C@H]1/C=C/COc2c(F)cccc2[C@@H](c2ccccn2)N2CN1C(=O)c1c(O)c(=O)ccn12 (single isomer, unassigned) [Compound 154AB, (9*S,18*S,*E)-9-ethyl-4-fluoro-12-hydroxy-18-(pyridin-2-yl)-6,9-dihydro-18H-10,17-methanobenzo[b]pyrido[1,2-f][1]oxa[5,6,9]triazacyclotridecine-11,13-dione] | > 50 | > 100 |
| CC[C@@H]1/C=C/COc2c(F)cccc2[C@H](c2ccccn2)N2CN1C(=O)c1c(O)c(=O)ccn12 (single isomer, unassigned) [Compound 154BA, (9*R,18*R,*E)-9-ethyl-4-fluoro-12-hydroxy-18-(pyridin-2-yl)-6,9-dihydro-18H-10,17-methanobenzo[b]pyrido[1,2-f][1]oxa[5,6,9]triazacyclotridecine-11,13-dione] | 6.8 | > 100 |
| CC[C@H]1/C=C/COc2c(F)cccc2[C@H](c2ccccn2)N2CN1C(=O)c1c(O)c(=O)ccn12 (single isomer, unassigned) [Compound 154BB, (9*S,18*R,*E)-9-ethyl-4-fluoro-12-hydroxy-18-(pyridin-2-yl)-6,9-dihydro-18H-10,17-methanobenzo[b]pyrido[1,2-f][1]oxa[5,6,9]triazacyclotridecine-11,13-dione] | 3.4 | > 100 |
| Cc1ccccc1[C@@H]1c2ccc(F)c(F)c2OC/C=C\CN2CN1n1ccc(=O)c(O)c1C2=O (single isomer, unassigned) [Compound 155A, (18*R,*Z)-3,4-difluoro-12-hydroxy-18-(o-tolyl)-6,9-dihydro-18H-10,17-methanobenzo[b]pyrido[1,2-f][1]oxa[5,6,9]triazacyclotridecine-11,13-dione] | 1.2 | > 100 |
| Cc1ccccc1C1c2ccc(F)c(F)c2OC/C=C\CN2CN1n1ccc(=O)c(O)c1C2=O (single isomer, unassigned) [Compound 155B, (18*S,*Z)-3,4-difluoro-12-hydroxy-18-(o-tolyl)-6,9-dihydro-18H-10,17-methanobenzo[b]pyrido[1,2-f][1]oxa[5,6,9]triazacyclotridecine-11,13-dione] | > 50 | > 100 |
| O=C1c2c(O)c(=O)ccn2N2CN1C1(/C=C/COc3cccc4c3[C@H]2c2ccccc2SC4)CCCC1 (single isomer, unassigned) [Compound 156A, (17a′*S,*E)-12′-hydroxy-2′,17a′-dihydro-6′H-spiro[cyclopentane-1,9′-[3,4](epiprop[1]en[1]yl[3]ylidene)[10,17]methanobenzo[6,7]thiepino[4,5-c]pyrido[1,2-f][1]oxa[5,6,9]triazacyclotridecine]-11′,13′-dione] | 0.51 | > 100 |
| CC(C)(C)[C@H]1/C=C/COc2cccc3c2[C@@H](c2ccccc2SC3)N2CN1C(=O)c1c(O)c(=O)ccn12 (single isomer, unassigned) [Compound 157A, (9*R,17a*S,*E)-9-(tert-butyl)-12-hydroxy-2,6,9,17a-tetrahydro-3,4-(epiprop[1]en[1]yl[3]ylidene)-10,17-methanobenzo[6,7]thiepino[4,5-c]pyrido[1,2-f][1]oxa[5,6,9]triazacyclotridecine-11,13-dione] | 1.3 | > 100 |
| CC(C)(C)[C@@H]1/C=C/COc2cccc3c2[C@H](c2ccccc2SC3)N2CN1C(=O)c1c(O)c(=O)ccn12 (single isomer, unassigned) [Compound 157B, (9*S,17a*R,*E)-9-(tert-butyl)-12-hydroxy-2,6,9,17a-tetrahydro-3,4-(epiprop[1]en[1]yl[3]ylidene)-10,17-methanobenzo[6,7]thiepino[4,5-c]pyrido[1,2-f][1]oxa[5,6,9]triazacyclotridecine-11,13-dione] | > 50 | > 100 |
| CC(C)c1ccccc1[C@H]1c2ccc(F)c(F)c2OC/C=C\CN2CN1n1ccc(=O)c(O)c1C2=O (single isomer, unassigned) [Compound 158A, (18*S,*Z)-3,4-difluoro-12-hydroxy-18-(2-isopropylphenyl)-6,9-dihydro-18H-10,17-methanobenzo[b]pyrido[1,2-f][1]oxa[5,6,9]triazacyclotridecine-11,13-dione] | > 50 | > 100 |
| CC(C)c1ccccc1[C@@H]1c2ccc(F)c(F)c2OC/C=C\CN2CN1n1ccc(=O)c(O)c1C2=O (single isomer, unassigned) [Compound 158B, (18*R,*Z)-3,4-difluoro-12-hydroxy-18-(2-isopropylphenyl)-6,9-dihydro-18H-10,17-methanobenzo[b]pyrido[1,2-f][1]oxa[5,6,9]triazacyclotridecine-11,13-dione] | > 50 | > 100 |
| O=C1c2c(O)c(=O)ccn2N2CN1C1(/C=C/COc3cc(F)c(F)c4c3[C@@H]2c2ccccc2SC4)CCC1 (single isomer, unassigned) [Compound 159A, (17a′*R,*E)-24′,25′-difluoro-12′-hydroxy-2′,17a′-dihydro-6′H-spiro[cyclobutane-1,9′-[3,4](epiprop[1]en[1]yl[3]ylidene)[10,17]methanobenzo[6,7]thiepino[4,5-c]pyrido[1,2-f][1]oxa[5,6,9]triazacyclotridecine]-11′,13′-dione] | > 50 | > 100 |
| O=C1c2c(O)c(=O)ccn2N2CN1C1(/C=C/COc3cc(F)c(F)c4c3[C@H]2c2ccccc2SC4)CCC1 (single isomer, unassigned) [Compound 159B, (17a′*S,*E)-24′,25′-difluoro-12′-hydroxy-2′,17a′-dihydro-6′H-spiro[cyclobutane-1,9′-[3,4](epiprop[1]en[1]yl[3]ylidene)[10,17]methanobenzo[6,7]thiepino[4,5-c]pyrido[1,2-f][1]oxa[5,6,9]triazacyclotridecine]-11′,13′-dione] | 0.19 | > 100 |
| CC[C@H]1/C=C/COc2c(ccc(F)c2F)[C@@H](c2ccccn2)N2CN1C(=O)c1c(O)c(=O)ccn12 (single isomer, unassigned) [Compound 160AA, (9*S,18*S,*E)-9-ethyl-3,4-difluoro-12-hydroxy-18-(pyridin-2-yl)-6,9-dihydro-18H-10,17-methanobenzo[b]pyrido[1,2-f][1]oxa[5,6,9]triazacyclotridecine-11,13-dione] | 5.2 | > 100 |
| CC[C@@H]1/C=C/COc2c(ccc(F)c2F)[C@@H](c2ccccn2)N2CN1C(=O)c1c(O)c(=O)ccn12 (single isomer, unassigned) [Compound 160AB, (9*R,18*S,*E)-9-ethyl-3,4-difluoro-12-hydroxy-18-(pyridin-2-yl)-6,9-dihydro-18H-10,17-methanobenzo[b]pyrido[1,2-f][1]oxa[5,6,9]triazacyclotridecine-11,13-dione] | 2.8 | > 100 |
| CC[C@H]1/C=C/COc2c(ccc(F)c2F)[C@H](c2ccccn2)N2CN1C(=O)c1c(O)c(=O)ccn12 (single isomer, unassigned) [Compound 160BA, (9*S,18*R,*E)-9-ethyl-3,4-difluoro-12-hydroxy-18-(pyridin-2-yl)-6,9-dihydro-18H-10,17-methanobenzo[b]pyrido[1,2-f][1]oxa[5,6,9]triazacyclotridecine-11,13-dione] | > 50 | > 100 |
| CC[C@@H]1/C=C/COc2c(ccc(F)c2F)[C@H](c2ccccn2)N2CN1C(=O)c1c(O)c(=O)ccn12 (single isomer, unassigned) [Compound 160BB, (9*R,18*R,*E)-9-ethyl-3,4-difluoro-12-hydroxy-18-(pyridin-2-yl)-6,9-dihydro-18H-10,17-methanobenzo[b]pyrido[1,2-f][1]oxa[5,6,9]triazacyclotridecine-11,13-dione] | > 50 | > 100 |
| O=C1c2c(O)c(=O)ccn2N2CN1C[C@H]1C[C@@H](COc3cccc4c3[C@@H]2c2ccccc2SC4)C1 (single isomer, unassigned) [Compound 161A] | > 50 | > 100 |
| O=C1c2c(O)c(=O)ccn2N2CN1C[C@H]1C[C@@H](COc3cccc4c3[C@H]2c2ccccc2SC4)C1 (single isomer, unassigned) [Compound 161B] | 15 | > 100 |
| C[C@@H]1/C=C/COc2cc(F)c(F)c3c2[C@H](c2ccccc2SC3)N2CN1C(=O)c1c(O)c(=O)ccn12 (single isomer, unassigned) [Compound 162A, (9*R,17a*R,*E)-24,25-difluoro-12-hydroxy-9-methyl-2,6,9,17a-tetrahydro-3,4-(epiprop[1]en[1]yl[3]ylidene)-10,17-methanobenzo[6,7]thiepino[4,5-c]pyrido[1,2-f][1]oxa[5,6,9]triazacyclotridecine-11,13-dione] | > 50 | > 100 |
